Earlier results as cited in patent US7858803B2, “Imaging tracers for early detection and treatment of amyloid plaques caused by Alzheimer's disease and related disorders” (The General Hospital Corporation, priority 2007, dated 2010).

Tests used:
[1] = normal mice, iv, at 2 min after injection
brain amyloid deposits = conditions: APP23 transgenic mice, brain sections at 180 min after iv injection

- initial brain uptake [1]: 3.9 % injected dose/gm
Compound: CNc1ccc(C=Cc2nc3ccc(OCCF)cc3o2)cc1 [BF-168, 6-(2-fluoroethoxy)-2-[2-(4-methylaminophenyl)ethenyl]-benzoxazole]
- labeling of brain amyloid deposits in autoradiograms (brain amyloid deposits): selective labeling of brain amyloid deposits with little non-specific binding
